Source: the NIST ThermoML archive (doi:10.1021/je300673m)

Experiment: mn = molality of the nth substance listed, in mol/kg
Conditions: 101 kPa, Liquid

O=P([O-])([O-])O.[K+].[K+] [dipotassium hydrogen phosphate] + O
viscosity [mPa·s]
Conditions	288.15 K	298.15 K	308.15 K	318.15 K
m1 = 0.2	1.201	0.953	0.781	0.659
m1 = 0.4	1.329	1.057	0.867	0.73
m1 = 0.6	1.409	1.118	0.916	0.77
m1 = 0.8	1.534	1.217	0.997	0.833
